From ChEMBL document CHEMBL1128435, “Synthesis of carbon-11-, fluorine-18-, and iodine-125-labeled GABAA-gated chloride ion channel blockers: substituted 5-tert-butyl-2-phenyl-1,3-dithianes and -dithiane oxides” (J Med Chem, 1995)

Tests used:
[1] = Partition coefficient (logP); type: physicochemical; details: octanol/water
[2] = target: GABA-A receptor; anion channel; test: In vitro displacement of [3H]TBOB from Gamma-aminobutyric acid A (GABA-A) receptor of rat brain

Compound	logP [1]	Ki [2] [nM]
CC(C)(C)C1CSC(c2ccc(F)cc2)SC1 (stereo unspecified)	4.97	
CC(C)(C)C1CSC(c2ccc(C#N)cc2)SC1 (stereo unspecified)	4.38	240
CC1(c2ccc(C#N)cc2)SCC(C(C)(C)C)CS1 (stereo unspecified)	4.89	
CC(C)(C)[C@H]1CS(=O)(=O)[C@@](C)(c2ccc(C#N)cc2)S(=O)(=O)C1 (stereo in doubt; 9a)		200
CC1(c2ccc(I)cc2)SCC(C(C)(C)C)CS1 (stereo unspecified)	6.5	1900
CC(C)(C)C1CS(=O)(=O)C(c2ccc(F)cc2)S(=O)(=O)C1 (stereo unspecified)	0.43	180

Next, values leading:

logP [1]	Ki [2] [nM]	Compound
1.95	105	CC(C)(C)C1CS(=O)(=O)C(C)(c2ccc(I)cc2)S(=O)(=O)C1 (stereo unspecified)
	41	CC(C)(C)[C@H]1CS(=O)(=O)[C@@](C)(c2ccc(C#N)cc2)S(=O)(=O)C1 (stereo in doubt; 9b)
4.96	85	C#Cc1ccc(C2SCC(C(C)(C)C)CS2)cc1 (stereo unspecified)
0.351	87	CC(C)(C)C1CS(=O)(=O)C(C)(c2ccc(C#N)cc2)S(=O)(=O)C1 (stereo unspecified)
